The values below come from publication PMC7845594, “Novel Immune Modulators Enhance Caenorhabditis elegans Resistance to Multiple Pathogens” (mSphere, 2021).

The test system of one data set is PMK-1/p38 MAPK pathway. The experiment in a line: irg-5p::GFP reporter. The class given is in vivo, Caenorhabditis elegans. The following applies: 25, 50, or 100 μM, 24 h, no pathogen. From the text: To test activation of these pathways, worms carrying GFP-based reporters for the SKN-1/Nrf, PMK-1/p38 MAPK, and DAF-16/FOXO pathways (gst-4p::GFP, irg-5p::GFP, and DAF-16::GFP, respectively) were exposed to each compound in S Basal medium in the absence of the pathogen.
FIG 4 A subset of LK molecules activates reporters for the SKN-1/Nrf2 or PMK-1/p38 MAPK pathways. […] Also present are DMSO and ethanol negative controls for LK compounds and juglone, respectively. The fluorescence intensity was normalized to that of DMSO. (B) Worms carrying an irg-5p::GFP reporter for PMK-1/p38 MAPK activity were incubated at 25, 50, or 100 μM in 1% DMSO. Positive and negative controls consisted of 100 μM RPW-24 in 1% DMSO and 1% DMSO alone. Fluorescence was measured at 24 h. […] P values were calculated using Student’s t test. […]
Worms were washed three times prior to incubation with compounds or DMSO control and diluted in S Basal medium supplemented with E. coli OP50 (OD600 = 0.08) as a food source. The fluorescence fold increase for gst-4p::GPF was taken as the fluorescence of each well and was normalized to the well’s fluorescence at 0 h. irg-5p::GFP, hsp-16.1p::GFP, rpt-6p::GFP, and hsp-4::GFP fluorescence was quantified as the fluorescence/worm area. […] For quantification of nuclear localization of GFP fusion reporters, worms were scored as either localization positive or localization negative. […]

For another data set, the system named is ESRE network. The experiment in a line: hsp-16.1p::GFP reporter (ESRE activation). The class given is in vivo, Caenorhabditis elegans. The following applies: 50 or 100 μM, no pathogen. An excerpt:
Previous work from our lab has established that the ESRE network plays an important role in the resistance of C. elegans to pyoverdine, the main virulence determinant in liquid killing, and recent evidence has shown that ESRE activation depends on increased reactive oxygen species (ROS) ([23], [38], [39]). To evaluate ESRE activation, worms carrying an hsp-16.1p::GFP reporter (which contains two ESRE motifs and was previously used as an indicator of ESRE activation [[39][–][41]]), were exposed to 50 or 100 μM LK35, LK38, LK56, juglone (positive control), or DMSO. […] ROS level was assessed based on the fluorescence of dihydroethidium (DHE; a ROS-specific dye) using a COPAS FlowSort for flow vermimetry.
Young adult wild-type (A), hsp-4p::GFP (B), hsp-16.1p::GFP (C), or rpt-3::GFP (D) worms were incubated with LK molecules at 50 or 100 µM, DMSO control, or positive controls. For panel A, the worms were treated with compound for 10 h, and then the worms were stained with 4 µM DHE for 1 h before washing and fluorescence measurement. For panels B to D, the worms were treated with compound for 15 h prior to fluorescence measurement. Mean values from at least three biological replicates are shown. *, P < 0.05; **, P < 0.01; ***, P < 0.001 (compared to the solvent control). P values were calculated using Student’s t test. Error bars represent the standard error of the mean. […]

The test system of a further data set is CCRF-CEM. The settings on record: cited from earlier work.
A further data set concerns MOLT-4. The settings on record: cited from earlier work.
Data set [1] has as its system GroEL and GroES families of bacterial chaperones. Further details: method as in PMID 27184767, PMID 24418775. The settings on record: cited from earlier work.

As for `O=c1cc(CNc2ccc(Br)cc2)nc2sccn12` [LK56], in the data set on PMK-1/p38 MAPK pathway, the “irg-5p::GFP fluorescence (PMK-1/p38 MAPK activation)” value was “modest increase”. In the data set with ESRE network, the “ESRE activation (hsp-16.1p::GFP)” value was “weak activation”. `COC(=O)/C=C/C(=O)Nc1ccccc1` [LK32]: the LD50 in the data set with CCRF-CEM and in the data set on MOLT-4 was approximately 40 µM throughout. `CNC(=O)Oc1c(Br)cc2sc(=O)oc2c1Br` [LK34]: the “Inhibition of GroEL and GroES chaperones” value in data set [1] was “potent inhibitor”.

For the compound `CN(C)/N=N/c1ccc(-c2cn(Cc3ccccc3)cn2)cc1` [LK38], the “irg-5p::GFP fluorescence (PMK-1/p38 MAPK activation)” value in the data set with PMK-1/p38 MAPK pathway is reported as “modest increase”.
